Results taken from patent publication US20260226084A1, “DUAL RAF AND TUBULIN INHIBITORS AND METHODS OF USE THEREOF” (Deciphera Pharmaceuticals, LLC, priority 2023, published 2026).

Assays:
[1] = molecular target: T1, B-Raf kinase (SEQ ID NO: 1) (Homo sapiens, UniProt P15056); test: Biochemical Assay for B-Raf (coupled pyruvate kinase/lactate dehydrogenase assay); details: 1 mM ATP; read-out: BRAF (inhibition of biochemical activity, IC50)
T1 construct: GST (N); purchased Sigma

[2] = molecular target: T2, C-Raf kinase (SEQ ID NO: 2) (Homo sapiens, UniProt P04049, Y340D/Y341D); test: Biochemical Assay for C-Raf (coupled pyruvate kinase/lactate dehydrogenase assay); details: 1 mM ATP; read-out: CRAF (inhibition of biochemical activity, IC50)
T2 construct: C-Raf residues 306-end; Y340D, Y341D with; GST (N); purchased Sigma

MiaPaca-2 cells = test: MiaPaca-2 Cell Proliferation Assay; format: cell-based; details: Homo sapiens, MIA PaCa-2, MiaPaca-2 cells; Table 2; read-out: Inhibition of cell proliferation in MiaPaca-2 (IC50 class)
Method in brief: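 Viability was read as resazurin fluorescence (540 nm excitation, 600 nm emission) after 5–6 h with dye. Compounds were tested as serial dilutions in triplicate, with IC50 derived from the dose–response.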

HCT-116 cells = test: HCT-116 Cell Proliferation Assay; format: cell-based; details: Homo sapiens, HCT-116, HCT-116 cells; Table 2; read-out: Inhibition of cell proliferation in HCT-116 (IC50 class)
Method in brief: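 IC50 values come from resazurin fluorescence (540 nm excitation, 600 nm emission) added for 4 to 5 h after compound treatment. Treatment: serially diluted compound in triplicate on 375 HCT-116 cells per well in complete McCoy's 5A/10% FBS, 67 to 72 hours, 37 °C, 5% CO2.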

HPAF-II cells = test: HPAF-II Cell Proliferation Assay; format: cell-based; details: Homo sapiens, HPAF-II, HPAF-II cells; Table 2; read-out: Inhibition of cell proliferation in HPAF-II (IC50 class)
Method in brief: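 Viability read-out was resazurin fluorescence (540 nm excitation, 600 nm emission), developed 18–24 h after a 115–120 h compound exposure of 750 HPAF-II cells per well in MEM/10% FBS at 37 °C. Compound was tested as a serial dilution in triplicate, and IC50 values were calculated.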

Pa16c cells = test: Pa16c Cell Proliferation Assay; format: cell-based; details: Table 2, read-out: Inhibition of cell proliferation in Pa16c (IC50 class)
Method in brief: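 Proliferation read-out: resazurin fluorescence (540 nm excitation, 600 nm emission) after an extra 18 to 24 h. Before that, compound dilution series (triplicate) stayed on 750 Pa16c cells/well in complete DMEM/10% FBS for 67 to 72 h at 37° C. IC50 values derived from the curves.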

T1 sequence (P15056 416-766): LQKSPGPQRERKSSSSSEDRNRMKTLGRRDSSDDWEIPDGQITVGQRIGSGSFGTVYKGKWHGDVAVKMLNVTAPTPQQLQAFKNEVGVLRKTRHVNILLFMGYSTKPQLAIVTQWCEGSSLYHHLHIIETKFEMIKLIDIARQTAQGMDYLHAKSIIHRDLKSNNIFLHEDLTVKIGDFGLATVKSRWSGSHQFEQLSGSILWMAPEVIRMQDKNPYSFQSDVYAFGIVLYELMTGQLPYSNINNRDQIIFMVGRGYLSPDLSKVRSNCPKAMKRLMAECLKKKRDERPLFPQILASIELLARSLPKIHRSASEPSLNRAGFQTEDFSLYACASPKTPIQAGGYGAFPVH
T2 sequence (P04049 307-648 Y340D/Y341D): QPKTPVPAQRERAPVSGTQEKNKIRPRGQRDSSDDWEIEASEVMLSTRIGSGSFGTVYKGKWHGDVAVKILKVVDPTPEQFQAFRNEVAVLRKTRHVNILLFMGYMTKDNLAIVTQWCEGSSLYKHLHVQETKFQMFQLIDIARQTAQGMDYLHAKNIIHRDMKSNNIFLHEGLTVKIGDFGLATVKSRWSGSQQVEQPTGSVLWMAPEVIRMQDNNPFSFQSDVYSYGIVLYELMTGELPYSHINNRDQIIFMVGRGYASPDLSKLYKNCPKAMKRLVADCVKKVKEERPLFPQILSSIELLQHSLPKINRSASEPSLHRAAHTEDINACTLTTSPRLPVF

Structure (SMILES)	IC50 [1] [µM]	IC50 [2] [µM]	IC50 (MiaPaca-2 cells) [µM]	IC50 (HCT-116 cells) [µM]	IC50 (HPAF-II cells) [µM]	IC50 (Pa16c cells) [µM]
Cc1ccc(NC(=O)c2cc(C(C)(C)F)cnn2)cc1-c1cncc(-c2cc(NC(=O)C3CC3)ncn2)c1 [Example 62]	< 0.1	< 0.1	0.1 to 0.5	< 0.1	< 0.1	0.5 to 1
Cc1ccc(NC(=O)c2cc(C3CCC3)cnn2)cc1-c1ccnc(-c2ccnc(NC(=O)C3CC3)c2)c1 [Example 44]	< 0.1	< 0.1	< 0.1	< 0.1	0.1 to 0.5	< 0.1
Cc1ccc(NC(=O)c2cc(C(C)(F)F)cnn2)cc1-c1cncc(-c2cc(NC(=O)C3CC3)ncn2)c1 [Example 63]	< 0.1	< 0.1	0.1 to 0.5	< 0.1	0.1 to 0.5	0.5 to 1
Cc1ccc(NC(=O)c2cc(C(F)(F)F)cnn2)cc1-c1ccnc(-c2ccnc(NCCO)c2)c1 [Example 129]	0.1 to 0.5	< 0.1	< 0.1	< 0.1	< 0.1	0.1 to 0.5
Cc1ccc(NC(=O)c2cc(C(F)(F)F)cnn2)cc1-c1cc(OCCO)nc(-c2ccnc(NC(=O)C3CC3)c2)c1 [Example 131]	< 0.1	< 0.1	0.1 to 0.5	< 0.1	0.1 to 0.5	0.1 to 0.5
COC(=O)Nc1cc(-c2ccnc(-c3cc(NC(=O)c4ccc(C(F)(F)F)nc4)ccc3C)n2)ccn1 [Example 6]	< 0.1	< 0.1	1 to 10	0.5 to 1	1 to 10	1 to 10
Cc1ccc(NC(=O)c2cc(C#N)cnn2)cc1-c1cc(N[C@H](C)CO)nc(-c2ccnc(NC(=O)C3CC3)c2)c1 [Example 151]	0.5 to 1	0.5 to 1	1 to 10	1 to 10	1 to 10	1 to 10
Cc1ccc(NC(=O)c2ccc(C(C)(F)F)nc2)cc1-c1ccnc(-c2ccnc(NC(=O)C3CC3)c2)c1 [Example 80]	< 0.1	< 0.1	0.1 to 0.5	0.1 to 0.5	0.1 to 0.5	0.1 to 0.5
Cc1ccc(NC(=O)c2cc(C(F)(F)F)cnn2)cc1-c1ccnc(-c2ccnc(NC(C)C)c2)c1 [Example 54]	1 to 10	1 to 10	0.1 to 0.5	0.1 to 0.5	0.1 to 0.5	0.1 to 0.5
Cc1ccc(NC(=O)c2ccc(C(F)F)nn2)cc1-c1ccnc(-c2ccnc(NC(=O)C3CC3)c2)c1 [Example 58]	0.5 to 1	0.1 to 0.5	0.1 to 0.5	< 0.1	0.1 to 0.5	1 to 10
Cc1ccc(NC(=O)c2cc(C(F)(F)F)cnn2)cc1-c1ccnc(-c2ccnc(NC(=O)C(F)(F)F)c2)c1 [Example 106]	0.1 to 0.5	< 0.1	< 0.1	< 0.1	< 0.1	< 0.1
O=C(Nc1cc(-c2ccnc(-c3ccnc(NC(=O)C4CC4)c3)c2)c(F)cc1F)c1cc(C(F)(F)F)cnn1 [Example 46]	< 0.1	< 0.1	1 to 10	1 to 10	1 to 10	1 to 10
Cc1ccc(NC(=O)c2cncc(C(C)(C)C#N)c2)cc1-c1ccnc(-c2ccnc(NC(=O)C3CC3)c2)c1 [Example 105]	< 0.1	< 0.1	0.1 to 0.5	< 0.1	0.1 to 0.5	1 to 10
CNc1cc(-c2cc(-c3cc(NC(=O)c4cc(C(F)(F)F)cnn4)ccc3C)ccn2)ccn1 [Example 50]	< 0.1	0.1 to 0.5	< 0.1	0.1 to 0.5	0.1 to 0.5	0.1 to 0.5
CC(=O)Nc1cc(-c2cncc(-c3cc(NC(=O)c4ccc(C(F)F)nc4)ccc3C)n2)ccn1 [Example 26]	0.1 to 0.5	0.1 to 0.5	0.1 to 0.5	0.1 to 0.5	0.5 to 1	0.5 to 1
Cc1ccc(NC(=O)c2cc(P(C)(C)=O)cnn2)cc1-c1ccnc(-c2ccnc(NC(=O)C3CC3)c2)c1 [Example 111]	< 0.1	< 0.1	1 to 10	1 to 10	1 to 10	1 to 10

Structure (SMILES)	IC50 [1] [µM]	IC50 [2] [µM]	IC50 (MiaPaca-2 cells) [µM]	IC50 (HCT-116 cells) [µM]	IC50 (HPAF-II cells) [µM]	IC50 (Pa16c cells) [µM]
CNc1cc(-c2cc(NC(=O)c3cc(C(F)(F)F)cnn3)ccc2C)cc(-c2ccnc(NC(=O)C3CC3)c2)n1 [Example 118]	< 0.1	< 0.1	< 0.1	< 0.1	< 0.1	< 0.1
CC(=O)Nc1cc(-c2cc(-c3cc(NC(=O)c4ccc(C(F)F)nc4)ccc3C)ccn2)ccn1 [Example 1, N-(3-(2′-acetamido-[2,4′-bipyridin]-4-yl)-4-methylphenyl)-6-(difluoromethyl)nicotinamide]	< 0.1	< 0.1	< 0.1	< 0.1	< 0.1	< 0.1
Cc1ccc(NC(=O)c2cc(C(C)(F)F)cnn2)cc1-c1cc(N[C@H](C)CO)nc(-c2cn[nH]c2)c1 [Example 121]	< 0.1	< 0.1	< 0.1	< 0.1	0.1 to 0.5	< 0.1
Cc1ccc(NC(=O)c2cc(C(F)(F)F)cnn2)cc1-c1ccnc(-c2ccnc(NC(=O)C3CCN(C)C3)c2)c1 (stereo not drawn) [Example 51]	< 0.1	< 0.1	0.1 to 0.5	0.1 to 0.5	0.1 to 0.5	0.5 to 1
Cc1ccc(NC(=O)c2cncc(C(C)(C)F)c2)cc1-c1cncc(-c2cc(NC(=O)C3CC3)ncn2)c1 [Example 68]	< 0.1	< 0.1	0.1 to 0.5	< 0.1	< 0.1	0.5 to 1
Cc1ccc(NC(=O)c2cc(C3CC3)cnn2)cc1-c1cc(-c2ccnc(NC(=O)C3CC3)c2)nc(NCCO)n1 [Example 15]	< 0.1	< 0.1	0.1 to 0.5	< 0.1	1 to 10	1 to 10
Cc1ccc(NC(=O)c2cnc(C(F)(F)F)cn2)cc1-c1ccnc(-c2ccnc(NC(=O)C3CC3)c2)c1 [Example 56]	0.1 to 0.5	< 0.1	0.5 to 1	0.5 to 1	1 to 10	1 to 10
Cc1ccc(NC(=O)c2cc(C(C)(F)F)cnn2)cc1-c1ccnc(-c2ccoc2)c1 [Example 149]	0.1 to 0.5	0.1 to 0.5	0.1 to 0.5	0.1 to 0.5	0.1 to 0.5	0.1 to 0.5
Cc1ccc(NC(=O)c2cnc(C(F)(F)F)nc2)cc1-c1ccnc(-c2cn[nH]c2)c1 [Example 126]	1 to 10	1 to 10	< 0.1	< 0.1	0.1 to 0.5	0.1 to 0.5
Cc1cc(-c2cc(NC(=O)c3cc(C(F)(F)F)cnn3)ccc2C)cc(-c2ccnc(NC(=O)C3CC3)c2)n1 [Example 18]	< 0.1	< 0.1	0.1 to 0.5	0.1 to 0.5	0.1 to 0.5	0.1 to 0.5
Cc1ccc(NC(=O)c2cc(C(F)(F)F)cnn2)cc1-c1cc(NCCO)nc(-c2ccnc(NC(=O)C3CC3)c2)c1 [Example 113]	< 0.1	< 0.1	< 0.1	< 0.1	< 0.1	< 0.1
Cc1ccc(NC(=O)c2cc(C(F)(F)F)cnn2)cc1-c1ccnc(-c2ccsc2)c1 [Example 146]	1 to 10	1 to 10	< 0.1	< 0.1	< 0.1	< 0.1
CNCC(=O)Nc1cc(-c2cc(-c3cc(NC(=O)c4cc(C(C)(F)F)cnn4)ccc3C)ccn2)ccn1 [Example 112]	< 0.1	< 0.1	0.1 to 0.5	0.1 to 0.5	0.1 to 0.5	0.1 to 0.5
Cc1ccc(NC(=O)c2cc(C(F)(F)F)cnn2)cc1-c1cc(N[C@H](C)CO)nc(-c2cn[nH]c2C)c1 [Example 120]	< 0.1	< 0.1	< 0.1	0.1 to 0.5	0.1 to 0.5	0.1 to 0.5
CC(=O)Nc1cc(-c2cc(-c3cc(NC(=O)c4ccc(C(F)F)nc4)c(F)cc3C)ccn2)ccn1 [Example 20]	< 0.1	< 0.1	< 0.1	0.1 to 0.5	< 0.1	0.1 to 0.5
